Test results from US20070066580A1, “Novel aldosterone antagonists and uses thereof” (Recordati Ireland Limited, priority 2005, published 2007).

Assays:
[1] = target: T1, GAL4 DBD-hMR LBD fusion protein (Homo sapiens, UniProt P08235); test: Cell-based luciferase assay, agonist mode (CV-1 cells); settings: 10 μM of compound
T1 construct: expressed in transfected cells; host or cells: CV-1 cells (African green monkey kidney), transient co-transfection with pCMX-GAL4-based vector and Galp3TKLuc reporter
Description: GAL4 DBD-hMR LBD fusion protein expression vector: A pCMX-GAL4-based vector was used for the expression of a fusion protein composed of the amino acids 1-147 of the DNA binding domain of Saccharomyces cerevisiae GAL4 (GAL4 DBD) (SEQ ID NO: 16) and amino acid residues 729-984 of the ligand binding domain of human mineralocorticoid receptor (hMR LBD) (SEQ ID NO: 14). The expression vector contained an expression cassette of the nucleotide sequence for the GAL4 DBD (See SEQ ID NO: 19) ligated to nucleotides 2401 through 3168 of the human mineralocorticoid (hMR) receptor (SEQ ID NO: 13).
In vitro cell culture: CV-1 cells (African green monkey kidney cell line, ATCC accession number CCL-70) were maintained in culture in 90% DMEM medium supplemented by 9% FCS and 1% Penicillin-Streptomycin-L-Glutamine at 37° C. under 8.5% CO2.
These cells were transiently co-transfected with the GAL4 DBD-hMR LBD fusion protein expression vector and the Galp3TKLuc reporter gene vector using the FuGENE 6 Transfection Reagent (Roche) according to the manufacturer's instructions.
Agonist assay: As a positive control, aldosterone (Acros Organics, catalogue # 215360050) was used at a concentration of 100 nM. The negative control sample was 90% DMEM medium supplemented by 9% charcoal-treated FCS and 1% Penicillin-Streptomycin-L-Glutamine containing 0.2% DMSO plus 0.02% ethanol. Positive control, negative control, or 10 μM final concentration of test compound was added to the cells and incubated for 24 hours at 37° C. under 8.5% CO2 before the Luciferase substrate (Promega, catalogue number #E2620) was added. After an incubation period of 5 min at RT, luminescence signals were read on a microplate reader (Molecular Devices/LJL Biosystems). Negative and positive controls were defined as 0% and 100% agonism, respectively. The agonistic potency of test compounds is given in % and was normalized to the positive and negative controls.

[2] = target: T2, ligand binding domain of the human mineralocorticoid receptor (hMR LBD) (Homo sapiens, UniProt P08235); test: Mineralocorticoid receptor (MR) in vitro competitive binding assay, [3H]aldosterone displacement; settings: IR^TOTAL = sum of IR^AR/MR, IR^ER/MR, IR^GR/MR, IR^PR/MR
T2 construct: made in house; host or cells: Sf9 insect cells (baculovirus, pFastBac)
T2 sequence (P08235 729-984): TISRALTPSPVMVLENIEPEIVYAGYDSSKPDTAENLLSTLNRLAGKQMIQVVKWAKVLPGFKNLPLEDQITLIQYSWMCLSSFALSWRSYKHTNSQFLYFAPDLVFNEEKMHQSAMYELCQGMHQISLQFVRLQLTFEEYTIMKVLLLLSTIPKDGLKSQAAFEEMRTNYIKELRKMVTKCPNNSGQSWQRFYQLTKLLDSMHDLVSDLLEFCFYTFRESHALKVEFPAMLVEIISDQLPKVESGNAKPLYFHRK
Procedure: Mineralocorticoid receptor (MR) binding assay: Spodoptera furgiperda (Sf9) insect cells (ATCC accession number CRL-1711) were maintained in culture in EX-CELL™ 420 serum free medium (JRH Biosciences, Inc.) at 27° C.
A recombinant baculovirus containing nucleotide sequences encoding the ligand binding domain of the human mineralocorticoid receptor (hMR) cloned into the pFastBac™ vector was generated using the Bac-to-Bac® Baculovirus Expression System Kit (Invitrogen) following the manufacturer's instructions. This recombinant baculovirus contains nucleotides 2401 through 3168 (SEQ ID NO: 13) of hMR, providing for expression of the ligand binding domain (LBD), amino acid residues 729-984 (SEQ ID NO: 14), of hMR (hMR LBD). Cultured Sf9 insect cells were transfected with this recombinant baculovirus following the manufacturer's instructions.
For the binding assay, a crude lysate of the hMR LBD-expressing insect cells was prepared. The crude lysate was diluted 12.5-fold with binding buffer (20 mM Tris-HCl pH 7.4, 1 mM EDTA, 1 mM dithiothreitol, 20 mM sodium tungstate, 50 mM KCl and 10% glycerol).
For the negative control sample, the diluted lysate was incubated with a 10 nM final concentration of the radioligand [1,2,6,7-^3H] aldosterone (Amersham Biosciences, catalogue # 434) for 3.5 h at 4° C. For test compounds and the positive control sample, the diluted lysate was incubated with various concentrations of test compound or with a 20 μM final concentration of spironolactone (Sigma, S-3378) as a reference compound for 45 min on ice, and was then incubated with a 10 nM final concentration of [1,2,6,7-^3H] aldosterone for 3.5 h at 4° C.
Using a CellHarvester (PerkinElmer, formerly Packard Biosciences), receptor/ligand complexes were retained on 96-well GF/B filters (PerkinElmer, formerly Packard Biosciences) while free radioligand passed through the filters. Scintillation counting of GF/B filter plates was performed using a TopCount NXT (PerkinElmer, formerly Packard Biosciences) to quantitate the amount of [1,2,6,7-^3H] aldosterone bound to the hMR LBD.
The IC50 of a test compound was determined from the concentration of test compound giving half-maximal displacement as obtained by nonlinear least-squares curve fitting to a one-site binding sigmoidal model using Prism 3.0 (Graph Pad Software, Inc., San Diego, US). The calculated IC50 values represent the average values calculated from the results of 1-3 experiments carried out in duplicate.
IC50 and inhibitory ratio calculations: To provide a measure of the potency of each test compound as an antagonist of MR, the IC50 of each test compound (IC50^Test) for ligand binding to MR and the IC50 of the known MR antagonists eplerenone (IC50^Ep) and spironolactone (IC50^Sp) for ligand binding to MR were used to calculate an IC50 ratio (RIC50) according to the following equations: RIC50^Ep/Test=IC50^Ep/IC50^Test and RIC50^Sp/Test=IC50^Sp/IC50^Test.
These individual inhibitory ratios were used to calculate a total inhibitory ratio (IR^TOTAL) according to the following equation: IR^TOTAL=IR^AR/MR+IR^ER/MR+IR^GR/MR+IR^PR/MR. B. Results and Discussion

T1 sequence (P08235 with tags, fused parts or gaps limits assumed): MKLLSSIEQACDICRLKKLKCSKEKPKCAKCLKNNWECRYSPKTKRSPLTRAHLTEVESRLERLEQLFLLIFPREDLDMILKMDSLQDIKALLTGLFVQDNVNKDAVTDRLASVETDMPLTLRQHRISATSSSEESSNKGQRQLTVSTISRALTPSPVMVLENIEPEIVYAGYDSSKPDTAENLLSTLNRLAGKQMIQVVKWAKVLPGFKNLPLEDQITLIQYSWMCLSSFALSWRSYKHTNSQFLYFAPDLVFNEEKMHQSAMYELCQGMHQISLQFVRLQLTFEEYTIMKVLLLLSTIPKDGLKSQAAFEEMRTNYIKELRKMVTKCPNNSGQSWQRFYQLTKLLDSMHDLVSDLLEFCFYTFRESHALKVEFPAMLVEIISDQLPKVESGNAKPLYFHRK

CCS[C@@H]1CC2=CC(=O)CC[C@]2(C)C2=CC[C@@]3(C)C(CC[C@@]34CCC(=O)O4)C21 (stereo partly drawn) [Example 13] was tested, and the “potency for activation of MR relative to aldosterone” value [1] was “at least three orders of magnitude less potent than aldosterone”, the “IR^TOTAL compared with the IR^TOTAL for eplerenone” value [2] was “at least an order of magnitude greater than the IR^TOTAL for eplerenone” and the “IR^TOTAL compared with the IR^TOTAL for spironolactone” value [2] was “at least an order of magnitude greater than the IR^TOTAL for spironolactone”.
